Reference: PubChem BioAssay AID1963430 (Molecular Pharmacology Branch, DTP, NCI, 2024)
Values joined by “and” are separate entries in the source; they are usually repeats but may differ in a detail not shown here. Equal entries are not always repeated.

System: 521955-158-R2-J5-PDC complex spheroid growth, % test/control
Test: Anticancer human tumor 521955-158-R2-J5-PDC patient-derived pancreatic carcinoma cell line growth inhibition [Asc]
Settings: for viability, T/C: stronger effect = lower value
In short: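 Complex solid-tumor spheroids incorporating human endothelial and mesenchymal stem cells received single agents or combinations over half-log dilution ranges anchored to clinical Cmax.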

[1] = curve of first compound, second compound 0.03 µM
[2] = curve of first compound, second compound 0.0949 µM
[3] = curve of first compound, second compound 0.3 µM
[4] = curve of first compound, second compound 0.949 µM
[5] = curve of first compound, second compound 3 µM
[6] = second compound 0.03 µM, first compound 0.0316 µM
[7] = second compound 0.03 µM, first compound 0.1 µM
[8] = second compound 0.0949 µM, first compound 0.0316 µM
[9] = second compound 0.0949 µM, first compound 0.1 µM
[10] = second compound 0.3 µM, first compound 0.0316 µM
[11] = second compound 0.3 µM, first compound 0.1 µM
[12] = second compound 0.949 µM, first compound 0.0316 µM
[13] = second compound 0.949 µM, first compound 0.1 µM
[14] = second compound 3 µM, first compound 0.0316 µM
[15] = second compound 3 µM, first compound 0.1 µM
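Also: spheroids exposed to agents for 7 days before readout.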
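For viability, T/C in this document: 100% = DMSO vehicle control viability.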

In the case of `Cn1ncnc1[C@H]1c2n[nH]c(=O)c3cc(F)cc(c23)N[C@@H]1c1ccc(F)cc1` + Cc1c(S(C)(=O)=O)c(-c2cc(F)cc(N3CCN(c4ccc(NS(=O)(=O)c5ccc(NC(CCN6CCC(C(=O)OCCCP(=O)(O)O)CC6)CSc6ccccc6)c(S(=O)(=O)C(F)(F)F)c5)cc4)CC3)c2)c(-c2ccc(Cl)cc2)n1C(C)C, the IC50 (curve of first compound, second compound 0.1 µM) is reported as > 100 nM, the IC50 (curve of first compound, second compound 0.316 µM) is reported as > 100 nM and the IC50 (curve of first compound, second compound 1 µM) is reported as 53.1 nM. For the same compound, the IC50 (curve of first compound, second compound 3.16 µM) was 29 nM, the IC50 (curve of first compound, second compound 10 µM) was > 100 nM and the viability, T/C (second compound 0.1 µM, first compound 0.000316 µM) was 93.4%. For the same compound, the viability, T/C (second compound 0.1 µM, first compound 0.001 µM) was 80.7%, the viability, T/C (second compound 0.1 µM, first compound 0.00316 µM) was 61.1% and the viability, T/C (second compound 0.1 µM, first compound 0.01 µM) was 67.2%. It also gave a viability, T/C (second compound 0.1 µM, first compound 0.0316 µM) of 53.3%, a viability, T/C (second compound 0.1 µM, first compound 0.1 µM) of 53.1% and a viability, T/C (second compound 0.316 µM, first compound 0.000316 µM) of 99.6%. For the same compound, the viability, T/C (second compound 0.316 µM, first compound 0.001 µM) was 84.3%, the viability, T/C (second compound 0.316 µM, first compound 0.00316 µM) was 74.6% and the viability, T/C (second compound 0.316 µM, first compound 0.01 µM) was 81.4%. For the same compound, the viability, T/C (second compound 0.316 µM, first compound 0.0316 µM) was 65.1%, the viability, T/C (second compound 0.316 µM, first compound 0.1 µM) was 68.8% and the viability, T/C (second compound 1 µM, first compound 0.000316 µM) was 151%. It also gave a viability, T/C (second compound 1 µM, first compound 0.001 µM) of 85%, a viability, T/C (second compound 1 µM, first compound 0.00316 µM) of 102% and a viability, T/C (second compound 1 µM, first compound 0.01 µM) of 55.1%. For the same compound, the viability, T/C (second compound 1 µM, first compound 0.0316 µM) was 54.8%, the viability, T/C (second compound 1 µM, first compound 0.1 µM) was 56.5% and the viability, T/C (second compound 3.16 µM, first compound 0.000316 µM) was 78.3%. For the same compound, the viability, T/C (second compound 3.16 µM, first compound 0.001 µM) was 105%, the viability, T/C (second compound 3.16 µM, first compound 0.00316 µM) was 82.3% and the viability, T/C (second compound 3.16 µM, first compound 0.01 µM) was 70.6%. For the same compound, the viability, T/C (second compound 3.16 µM, first compound 0.0316 µM) was 39.8%, the viability, T/C (second compound 3.16 µM, first compound 0.1 µM) was 56.8% and the viability, T/C (second compound 10 µM, first compound 0.000316 µM) was 241%. It also gave a viability, T/C (second compound 10 µM, first compound 0.001 µM) of 216%, a viability, T/C (second compound 10 µM, first compound 0.00316 µM) of 201% and a viability, T/C (second compound 10 µM, first compound 0.01 µM) of 173%. The viability, T/C (second compound 10 µM, first compound 0.0316 µM) was 236% and the viability, T/C (second compound 10 µM, first compound 0.1 µM) was 164%.
With `O=C(c1cc(Cc2n[nH]c(=O)c3ccccc23)ccc1F)N1CCN(C(=O)C2CC2)CC1` + CCN1C(C(=O)NC23CCC(C(=O)O)(CC2)CC3)C(c2cccc(Cl)c2F)C2(C(=O)Nc3cc(Cl)ccc32)C12CCCCC2 the IC50 [1] was > 10000 nM, the IC50 [2] was > 10000 nM and the IC50 [3] was > 10000 nM. For the same compound, the IC50 [4] was > 10000 nM, the IC50 [5] was > 10000 nM and the viability, T/C [6] was 101%. The viability, T/C [7] was 113%, the viability, T/C (second compound 0.03 µM, first compound 0.316 µM) was 68.7% and the viability, T/C (second compound 0.03 µM, first compound 1 µM) was 91.9%. The viability, T/C (second compound 0.03 µM, first compound 3.16 µM) was 86.1%, the viability, T/C (second compound 0.03 µM, first compound 10 µM) was 63% and the viability, T/C [8] was 114%. For the same compound, the viability, T/C [9] was 102%, the viability, T/C (second compound 0.0949 µM, first compound 0.316 µM) was 99% and the viability, T/C (second compound 0.0949 µM, first compound 1 µM) was 73.2%. The viability, T/C (second compound 0.0949 µM, first compound 3.16 µM) was 74.2%, the viability, T/C (second compound 0.0949 µM, first compound 10 µM) was 74.5% and the viability, T/C [10] was 96.9%. It also gave a viability, T/C [11] of 131%, a viability, T/C (second compound 0.3 µM, first compound 0.316 µM) of 104% and a viability, T/C (second compound 0.3 µM, first compound 1 µM) of 87.2%. For the same compound, the viability, T/C (second compound 0.3 µM, first compound 3.16 µM) was 75.2%, the viability, T/C (second compound 0.3 µM, first compound 10 µM) was 66.8% and the viability, T/C [12] was 123%. It also gave a viability, T/C [13] of 124%, a viability, T/C (second compound 0.949 µM, first compound 0.316 µM) of 113% and a viability, T/C (second compound 0.949 µM, first compound 1 µM) of 113%. It also gave a viability, T/C (second compound 0.949 µM, first compound 3.16 µM) of 93.3%, a viability, T/C (second compound 0.949 µM, first compound 10 µM) of 88.8% and a viability, T/C [14] of 109%. The viability, T/C [15] was 137%, the viability, T/C (second compound 3 µM, first compound 0.316 µM) was 135% and the viability, T/C (second compound 3 µM, first compound 1 µM) was 126%. The viability, T/C (second compound 3 µM, first compound 3.16 µM) was 106% and the viability, T/C (second compound 3 µM, first compound 10 µM) was 98%.
With `Cn1ncnc1[C@H]1c2n[nH]c(=O)c3cc(F)cc(c23)N[C@@H]1c1ccc(F)cc1` + CCN1C(C(=O)NC23CCC(C(=O)O)(CC2)CC3)C(c2cccc(Cl)c2F)C2(C(=O)Nc3cc(Cl)ccc32)C12CCCCC2 the IC50 [1] was > 100 nM, the IC50 [2] was > 100 nM and the IC50 [3] was > 100 nM. The IC50 [4] was > 100 nM, the IC50 [5] was > 100 nM and the viability, T/C (second compound 0.03 µM, first compound 0.000316 µM) was 142%. For the same compound, the viability, T/C (second compound 0.03 µM, first compound 0.001 µM) was 56.8%, the viability, T/C (second compound 0.03 µM, first compound 0.00316 µM) was 100% and the viability, T/C (second compound 0.03 µM, first compound 0.01 µM) was 57.9%. The viability, T/C [6] was 76.7%, the viability, T/C [7] was 55.6% and the viability, T/C (second compound 0.0949 µM, first compound 0.000316 µM) was 104%. The viability, T/C (second compound 0.0949 µM, first compound 0.001 µM) was 77.5%, the viability, T/C (second compound 0.0949 µM, first compound 0.00316 µM) was 90.5% and the viability, T/C (second compound 0.0949 µM, first compound 0.01 µM) was 71.7%. For the same compound, the viability, T/C [8] was 66.6%, the viability, T/C [9] was 49.4% and the viability, T/C (second compound 0.3 µM, first compound 0.000316 µM) was 90.6%. For the same compound, the viability, T/C (second compound 0.3 µM, first compound 0.001 µM) was 100%, the viability, T/C (second compound 0.3 µM, first compound 0.00316 µM) was 101% and the viability, T/C (second compound 0.3 µM, first compound 0.01 µM) was 110%. For the same compound, the viability, T/C [10] was 78%, the viability, T/C [11] was 67.8% and the viability, T/C (second compound 0.949 µM, first compound 0.000316 µM) was 116%. For the same compound, the viability, T/C (second compound 0.949 µM, first compound 0.001 µM) was 135%, the viability, T/C (second compound 0.949 µM, first compound 0.00316 µM) was 107% and the viability, T/C (second compound 0.949 µM, first compound 0.01 µM) was 98.9%. For the same compound, the viability, T/C [12] was 94.2%, the viability, T/C [13] was 73% and the viability, T/C (second compound 3 µM, first compound 0.000316 µM) was 146%. For the same compound, the viability, T/C (second compound 3 µM, first compound 0.001 µM) was 116%, the viability, T/C (second compound 3 µM, first compound 0.00316 µM) was 122% and the viability, T/C (second compound 3 µM, first compound 0.01 µM) was 130%. It also gave a viability, T/C [14] of 122% and a viability, T/C [15] of 86.6%.
In the case of `C=C(F)C(=O)N1CCN(c2nc(OCC3CCCN3C)nc3c2CCN(c2cccc4cccc(Cl)c24)C3)CC1CC#N` (centres undefined), the viability, T/C (compound 0.0316 µM) is reported as 68.6% and 77.1% and 84.2%, the viability, T/C (compound 0.1 µM) is reported as 89% and 77.1% and 94.1% and the viability, T/C (compound 0.316 µM) is reported as 78.8% and 86.1% and 107%. For the same compound, the viability, T/C (compound 1 µM) was 105% and 95.4% and 98.1%, the viability, T/C (compound 3.16 µM) was 115% and 136% and 120% and the viability, T/C (compound 10 µM) was 0.29% and 0.32% (2×). For the same compound, the IC50 (curve of compound) was 5330 nM and 5440 nM and 5660 nM.
For `COc1c(OCCCN2CCOCC2)ccc2c3n(c(=NC(=O)c4cnc(N)nc4)nc12)CCN3`, the viability, T/C (compound 0.00316 µM) was 53.2% and 58.9% and 68.7%, the viability, T/C (compound 0.01 µM) was 51.9% and 45.7% and 44% and the viability, T/C (compound 0.0316 µM) was 40.8% and 38.2% and 34.3%. The viability, T/C (compound 0.1 µM) was 30.1% and 31.6% and 29.1%, the viability, T/C (compound 0.316 µM) was 18.9% and 20% and 19.9% and the viability, T/C (compound 1 µM) was 15.3% and 16.1% and 14.2%. The IC50 (curve of compound) was 10.7 nM and 7.52 nM and 8.61 nM.
